Measurements published in PubChem BioAssay AID179 (DTP/NCI, 2004).
pEC50, pIC50: −log10 of the molar value. Values joined by “and” are separate entries in the source; they are usually repeats but may differ in a detail not shown here. Equal values may be shown once. Active and inactive are the calls of the source.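 Rule for the calls: active = compounds giving half or more protection of infected cells from virus-caused growth loss, again on retest; inactive = the rest.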 Where a SMILES comes first, the peptide text is derived from it. The star is where a group is joined. Cbz = O=C(OCc1ccccc1)*; Bn = c1ccc(C*)cc1

Test system: CEM cells HIV-1 protection, formazan growth assay
Experiment: NCI AIDS Antiviral Assay
Conditions: for pIC50: measured here: growth of uninfected CEM cells
Summary of the method: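 Five concentrations of each compound were applied to infected and uninfected human CEM cells. Protection from HIV-1 was judged from growth measured with a soluble formazan assay.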

Row | Compound | pEC50 | pIC50 | outcome
1 | CC(C)(C)OC(=O)N(CCCCNC(=O)C(F)(F)F)CCCNC(=O)C(F)(F)F | < 3.70 | < 3.70 | –
2 | O=C(CCc1nc(=S)[nH][nH]1)Nc1cc(Cl)c(Cl)cc1Cl | < 3.71 | < 3.71 | –
3 | N#Cc1cccc(N(C(=O)c2ccccc2)c2ccccc2)n1 | < 3.70 | 3.95 | –
4 | N#CC12CCC1C1CCCCC12N1CCSCC1 (configuration not stated) | – | – | inactive
5 | CCCCCCCCCCCCC(Br)C(=O)SCCNC(=O)CCNC(=O)[C@@H](O)C(C)(C)COP(=O)(O)OP(=O)(O)OCC1OC(n2cnc3c(N)ncnc32)C(O)C1OP(=O)(O)O (some centres not stated) | – | – | inactive
6 | Nc1ccccc1C(=O)/C=C/c1ccccc1O | < 4.13 | 4.28 | –
7 | Nn1c(SCC(=O)NCc2ccccc2)nc2ccccc2c1=O | 4.90 | 4.02 | –
8 | O=CC[C@H]1C(=O)C[C@@H]2CCC[C@@H]21 | < 3.10 | 4.35 | –
9 | COc1cc(Br)c(OC)c2c(OC)cc(C)cc12 | < 3.70 | 4.45 | –
10 | CSc1nc(Cl)c2c(n1)Sc1nc3ccccc3n1C2O (configuration not stated) | < 3.70 | 5.20 | –
11 | CC1(C)N=C(c2ccccc2)C2(c3ccccc3)N1C2(C)C (configuration not stated) | < 3.63 | 3.65 | –
12 | CC1(C)c2ccccc2C(C)(C)C(C(=O)Nc2ccccc2)C1C(=O)O (configuration not stated) | – | – | inactive
13 | COC(=O)C(Cc1ccc(O)cc1)NC(=O)C(COCc1ccccc1)NC(=O)OCc1ccccc1 (configuration not stated) (Cbz-Ser(Bn)-Tyr-OMe; configuration not given here) | < 3.70 | 4.52 | –
14 | CC1(C)OC(=O)C(C#N)=C1/C=C1\OC(=O)c2ccccc21 | < 3.75 | 4.28 | –
15 | C1=Nc2ccccc2N=Cc2ccccc2NCCNc2ccccc21 | < 3.70 | < 3.70 | –
16 | COc1cc2c(c(OC)c1OC)-c1ccc(SC)c(=O)cc1C(NC(=O)c1ccccc1)CC2 (configuration not stated) | < 5.70 | 9.15 | –
17 | CCOC(=O)NC(=O)c1cn(CCCOC(=O)NCCCCCCNC(=O)OCCCn2c(=O)c(C(=O)NC(=O)OCC)cn(C)c2=O)c(=O)n(C)c1=O | < 4.47 | < 4.47 | –
18 | O=C(O)c1ccc(S(=O)(=O)c2ccccc2)c([N+](=O)[O-])c1 | < 2.60 | 3.54 | –
19 | C#CC(O)/C=C/C(O)CCCC(O)CC#CC(O)C#CCCCCC(O)/C=C/CCCCCC(=O)CCCCCCCCCCCCCC(O)C(O)C#CC(=O)O (configuration not stated) | < 4.30 | 4.54 | –
20 | O=[N+]([O-])c1ccccc1S(=O)(=O)c1ccc(Cl)cc1 | 4.91 and 4.68 | 4.30 and 4.09 | –
21 | COc1cc(C)c(/C=C/C(=O)N2C(=O)OC[C@@H]2c2ccccc2)c(C)c1 | < 3.70 | 4.57 | –

Row | Compound | pEC50 | pIC50 | outcome
22 | COc1ccc(/C=C2\CCS(=O)(=O)c3ccccc3C2=O)cc1OC | < 4.00 | 4.95 | –
23 | Cc1cc(C)c(-c2noc(-c3ccccc3)c2C2=NCCN2)c(C)c1 | – | – | inactive
24 | O=C(O)C(CS)NCc1c2ccccc2[n+]([O-])c2ccccc12 (configuration not stated) | – | – | inactive
25 | O=C1/C(=C/c2ccccc2)CN(C(=O)Oc2ccc([N+](=O)[O-])cc2)C/C1=C\c1ccccc1 | – | – | inactive
26 | c1cc2sc3ccc(OCCCN4CCCCC4)cc3c2cc1OCCCN1CCCCC1 | < 4.03 | 5.80 | –
27 | CC1(C)Oc2ccccc2[N+]([O-])=C1c1ccccc1 | < 3.85 | < 3.85 | –
28 | COc1ccc2c(ccc3nc(CCC(=O)O)n(C)c(=O)c32)c1 | < 3.10 | 3.64 | –
29 | COC(=O)C1C2CC3c4[nH]c5cc(OC)ccc5c4CCN3CC2CC(OC)C1OC (configuration not stated) | < 3.70 | < 3.70 | –
30 | O=C(O/N=C1/CCCC/C1=C\c1ccccc1)c1ccc(Cl)c(Cl)c1 | – | – | inactive
31 | C(=C\c1ccc(-c2cn3cc(/C=C/C=N/NC4=NCCN4)ccc3n2)cc1)/C=N/NC1=NCCN1 | – | – | inactive
32 | COC[C@@H](N=CN1CCc2cc(OC)ccc2C1)C(C)C | < 3.06 | < 3.06 | –
33 | COC(=O)C(=O)C(C(=O)Nc1cccc(C)c1C)C1Sc2ccccc2NC1=O (configuration not stated) | < 4.76 | 4.78 | –
34 | CCCCNC(=O)C1C(=O)N(CCCC)C(=O)/C1=N\N (configuration not stated) | < 4.59 | < 4.59 | –
35 | CN(C)CC1C2C=CC(C3CC23)C1CN(C)C (configuration not stated) | – | – | inactive
36 | O=C(CCCN1CCC(O)(c2ccc(Cl)cc2)CC1)c1ccc(F)cc1 | < 3.88 | – | –
37 | CC1(C)CCc2cc3c(cc2O1)OCC1c2cc4c(cc2OC31)OCO4 (configuration not stated) | – | – | inactive
38 | CC#N.CC#N.COC(=O)[C@@H]1CN(C(=O)c2ccccc2)C(=O)[N-]1.COC(=O)[C@@H]1CN(C(=O)c2ccccc2)C(=O)[N-]1.COC(=O)[C@@H]1CN(C(=O)c2ccccc2)C(=O)[N-]1.COC(=O)[C@@H]1CN(C(=O)c2ccccc2)C(=O)[N-]1.[Rh+2].[Rh+2] | 4.97 | 4.06 | –
39 | S=c1sc(-c2ccc(Cl)cc2)nn1CSc1nc2ccccc2o1 | < 3.70 | < 3.70 | –
40 | COc1ccc2nc3cc(Cl)ccc3c(NCCC(=O)OCC(O)C(O)C(O[C@H](C)C(=O)NC(C)C(=O)NC(CCC(N)=O)C(=O)OCc3ccccc3)C(C=O)NC(C)=O)c2c1 (some centres not stated) | 6.02 | 5.33 | –
41 | Cc1ccc2nnc(NS(=O)(=O)c3cc(C)c(Cl)cc3S)n2n1 | < 3.70 | < 3.70 | –
42 | Cc1cc2c(cc1C)NS(=O)(=O)N2 | < 3.35 | 5.01 | –

Row | Compound | pEC50 | pIC50 | outcome
43 | COc1cccc(C(O)C(CN2CCCCC2)CN2CCCCC2)c1 (configuration not stated) | < 3.70 | < 4.00 | –
44 | CC/C(SC)=[N+](\C)[O-] | < 3.02 | 3.76 | –
45 | CCc1nc2ccccn2n1 | < 3.70 | < 3.70 | –
46 | COc1ccc2nc3ccccc3c(NCCC[N+](C)(C)[O-])c2c1[N+](=O)[O-] | < 3.70 | 4.85 | –
47 | FC(F)(F)c1nc(-c2ccccc2)oc1Sc1nnc(Sc2oc(-c3ccccc3)nc2C(F)(F)F)s1 | – | – | inactive
48 | COC(=O)C1=NN2c3ccccc3C(=O)OCCC2C1 (configuration not stated) | < 3.70 | < 3.70 | –
49 | N#Cc1c(-c2ccc([N+](=O)[O-])cc2)c(=O)oc2cc(O)ccc12 | < 4.00 | 4.13 | –
50 | CC(=O)O[C@H]1CC[C@@]2(C)C(=C[C@H](c3ccc(O)cc3)[C@H]3[C@@H]4CC[C@H](OC(C)=O)[C@@]4(C)CC[C@@H]32)C1 | < 3.70 | 4.64 | –
51 | O=Cn1c2ccccc2c2ccccc21 | < 3.70 | 3.77 | –
52 | Cn1c(=O)sc2cc(C(=S)N3CCCCC3)ccc21 | < 3.70 | 3.97 | –
53 | O=c1[nH]c(=O)c2ncn(-c3ccc([N+](=O)[O-])cn3)c2[nH]1 | – | – | inactive
54 | Cc1ccc(-c2c(C#N)c(-c3ccccc3)n(NS(=O)(=O)c3ccc(C)cc3)c(=O)c2C#N)cc1 | < 3.70 | 4.17 | –
55 | CC1(C)OC2C=C(COCc3ccccc3)C[C@H]3[C@@H]2C(O1)[C@@H]1OC[C@H]3O1 (some centres not stated) | – | – | inactive
56 | COC(=O)C1=COC2OC3/C(=C\c4ccc(O)c(OC)c4)C(=O)OC34C=CC1C24 (configuration not stated) | < 3.70 | 4.62 | –
57 | O=c1[nH]cnc2c1ncn2[C@@H]1C[C@H]1CO | – | – | inactive
58 | CC(=O)NC(N)=NC#N | < 2.70 | < 2.70 | –
59 | Cc1nc(Nc2ccc(Cl)cc2Cl)sc1C(=O)Nc1ccccc1 | < 3.70 | 3.93 | –
60 | O=C(NC1=NCC(CN2CCN(c3ccccc3)CC2)O1)Nc1ccccc1 (configuration not stated) | < 3.70 | 3.81 | –
61 | CCCCCCSCC(NC(=O)CCC(N)C(=O)O)C(=O)NCC(=O)O (configuration not stated) | < 4.62 | < 4.62 | –
